Tests used:
Phytophthora cinnamomi = assay: Amended agar assay (potato dextrose agar), reduction in colony growth; assay type: cell-based; conditions: for EC50: descending test concentrations, 5-fold dilutions typically down to 0.032 ppm, read-out: Phytophthora cinnamomi (EC50)
Experimental: (§1) Testing was carried out on potato dextrose agar (PDA) amended with each compound at test concentrations of 20, 4 and 0.8, 0.16 and 0.032 ppm. Amended agar at each test concentration was poured into three replicate 9 cm petri dishes. Each replicate dish was inoculated in the centre with a 5 mm agar plug taken from the leading edge of a culture aged between 2 and 7 days old; the age of the culture was dependant on the growth rate of the pathogen being tested. The test pathogens were Pythium ultimum and Phytophthora cinnamomi. Plates were incubated at 18° C. and the diameter of each colony measured before growth on the fastest growing plate reached the plate edge. This varied between 2 and 7 days depending on the growth rate of test pathogens. The % reduction in colony growth compared to the control was calculated for each test concentration and pathogen combination.
(§2) The results are shown in Table 1 in which * represents an average control of up to 50% at said dosage; ** represents an average control of 50% or greater but less than 80% at said dosage; and *** represents an average control of 80% or greater at said dosage.
(§3) A primary screen was also conducted for a number of other compounds of the invention. The screen was conducted at 20 ppm and the results are provided in Table 2, in which D represents no control detected at this concentration; C represents up to 50% control; B from 50 to 99% control; and A represents a control of greater than 99%.
(§4) Alternatively, or in addition, the same assay was conducted at descending test concentrations with 5-fold dilutions typically down to 0.032 ppm, and an EC50 (the concentration at which 50% control would be achieved) was determined. The results are provided in Table 1 in which G represents an EC50 above 20 ppm, F represents an EC50 of 2-20 ppm and E represents and EC50 less than 2 ppm.

Pythium ultimum = assay: as above; assay type: cell-based; conditions: Globisporangium ultimum; for EC50: descending test concentrations, 5-fold dilutions typically down to 0.032 ppm, read-out: Pythium ultimum (EC50); for inhibition of growth at 20 ppm: Pythium ultimum, primary screen at 20 ppm, read-out: % control at 20 ppm
Experimental: as §1, §2, §3, §4

Row | SMILES | EC50 (Phytophthora cinnamomi) | EC50 (Pythium ultimum) | inhibition of growth at 20 ppm (Phytophthora cinnamomi; primary screen at 20 ppm, read-out: % control at 20 ppm) | inhibition of growth at 20 ppm (Pythium ultimum)
1 | Cn1nnnc1-n1c(OCc2cccc(NC(=O)C[S+](C)[O-])n2)nc2ccccc21 (stereo not drawn) [Example 52, N-(6-(((1-(1-Methyl-1H-tetrazol-5-yl)-1H-benzo[d]imidazol-2-yl)oxy)methyl)pyridin-2-yl)-2-(methylsulfinyl)acetamide] | 2 to 20 µg/mL | > 20 µg/mL | – | –
2 | Cn1nnnc1-n1c(OCc2cccc(NC(=O)CS(C)(=O)=O)n2)nc2ccccc21 [Example 53, N-(6-(((1-(1-methyl-1H-tetrazol-5-yl)-1H-benzo[d]imidazol-2-yl)oxy)methyl)pyridin-2-yl)-2-(methylsulfonyl)acetamide] | < 2 µg/mL | 2 to 20 µg/mL | – | –
3 | Cn1nnnc1-n1c(OCc2cccc(NC(=O)C(F)(F)Oc3ccccc3)n2)nc2c(F)cc(F)cc21 [Example 55] | < 2 µg/mL | < 2 µg/mL | – | –
4 | Cn1ccnc1-n1c(OCc2cccc(NC(=O)OC(C)(C)C)n2)nc2ccccc21 [Example 57] | < 2 µg/mL | < 2 µg/mL | – | –
5 | Cn1nnnc1-n1c(OCc2cccc(NC(=O)OC(C)(C)C)n2)nc2c(F)cc(F)cc21 [Example 58] | < 2 µg/mL | < 2 µg/mL | – | –
6 | Cc1nccnc1-n1c(OCc2cccc(NC(=O)OC(C)(C)C)n2)nc2ccccc21 [Example 59] | > 20 µg/mL | > 20 µg/mL | – | –
7 | O=C(Nc1cccc(COc2nc3ccccc3n2-c2ncccc2Br)n1)C(F)(F)Oc1ccccc1 [Example 62] | – | – | < 50% | < 50%

More lines, main results first:

Row | EC50 (Phytophthora cinnamomi) | EC50 (Pythium ultimum) | SMILES | inhibition of growth at 20 ppm (Phytophthora cinnamomi; primary screen at 20 ppm, read-out: % control at 20 ppm) | inhibition of growth at 20 ppm (Pythium ultimum)
8 | < 2 µg/mL | < 2 µg/mL | Cn1ccnc1-n1c(OCc2cccc(NC(=O)C(F)(F)Oc3ccccc3)n2)nc2ccccc21 [Example 54] | – | –
9 | 2 to 20 µg/mL | < 2 µg/mL | Cc1nccnc1-n1c(OCc2cccc(NC(=O)C(F)(F)Oc3ccccc3)n2)nc2ccccc21 [Example 56] | – | –
10 | < 2 µg/mL | < 2 µg/mL | Cn1nnnc1-n1c(OCc2cccc(NC(=O)C(F)(F)Oc3ccccc3)n2)nc2ccc(C#N)cc21 [Example 60] | – | –
11 | < 2 µg/mL | < 2 µg/mL | Cn1nnnc1-n1c(OCc2cccc(NC(=O)C(F)(F)Oc3ccccc3)n2)nc2cc(C#N)ccc21 [Example 61] | – | –
12 | 2 to 20 µg/mL | 2 to 20 µg/mL | O=C(Nc1cccc(COc2nc3ccccc3n2-c2ncccc2Cl)n1)C(F)(F)Oc1ccccc1 [Example 63] | – | –
13 | < 2 µg/mL | – | O=C(Nc1cccc(COc2nc3ccccc3n2-c2ncncc2Cl)n1)C(F)(F)Oc1ccccc1 [Example 64] | – | > 99%
14 | > 20 µg/mL | – | Cc1cccnc1-n1c(OCc2cccc(NC(=O)C(F)(F)Oc3ccccc3)n2)nc2ncccc21 [Example 66] | – | 50 to 99%
15 | > 20 µg/mL | > 20 µg/mL | O=C(Nc1cccc(COc2[nH]c3ccccc3c2-c2ncncc2Cl)n1)C(F)(F)Oc1ccccc1 [Example 69, N-(6-(((3-(5-Chloropyrimidin-4-yl)-1H-indol-2-yl)oxy)methyl)pyridin-2-yl)-2,2-difluoro-2-phenoxyacetamide] | – | –
